Results taken from US8299056B2 (Signal Pharmaceuticals, LLC, priority 2008, dated 2012).
pIC50: −log10 of the molar value.

target: T1, Syk (Homo sapiens, UniProt P43405); assay: Syk HTRF assay; type: biochemical; settings: IC50 activity level, read-out: Activity Level
T1 construct: purchased Carna Biosciences
Procedure, shortened: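 HTRF kinase assay in HEPES pH 7.6 buffer with MgCl2, DTT and Triton X100; start mix of 87.5 μM ATP and 80 nM biotinylated peptide, 1 h at room temperature. EDTA stop, then Eu-anti-phosphotyrosine/streptavidin-DyLight 647 detection, read as 665/615 nm emission ratio.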

With `Cc1cccc2nc(Nc3ccc4c(c3)NC(=O)C4(C)C)nn12` [Example 564] as the compound, how does the pIC50 read?
The pIC50 was 6.60 to 11.30.

`c1cc(N[C@@H]2CCCNC2)n2nc(Nc3ccc4c(c3)CNC4)nc2c1` [Example 449] was tested. Which pIC50 did it give?
The pIC50 was 6.60 to 11.30.

With `Cc1n[nH]c2ncc(Nc3nc4cccc(N[C@H]5CC[C@@H](O)CC5)n4n3)cc12` [Example 541, cis-4-(2-(3-methyl-1H-pyrazolo[3,4-b]pyridin-5-ylamino)-[1,2,4]triazolo[1,5-a]pyridin-5-ylamino)cyclohexanol] as the compound, how does the pIC50 read?
Its pIC50 is 6.60 to 11.30.

`Fc1ccc(Nc2nc3cccc(N[C@H]4CCCNC4)n3n2)cc1` [Example 465, (S)-N^2-(4-fluorophenyl)-N^5-(piperidin-3-yl)-[1,2,4]triazolo[1,5-a]pyridine-2,5-diamine] was tested. Which pIC50 did it give?
The pIC50 was 6.60 to 11.30.

With `c1ccc(Nc2nc3cccc(Nc4ccccc4)n3n2)cc1` [Example 529, N^2,N^5-diphenyl-[1,2,4]triazolo[1,5-a]pyridine-2,5-diamine] as the compound, how does the pIC50 read?
The pIC50 was 6.30 to 6.60.

How did the pIC50 turn out when `CNCc1nc2ccc(-c3cccc4nc(Nc5ccccc5)nn34)cc2o1` [Example 424, 5-(2-((methylamino)methyl)benzo[d]oxazol-6-yl)-N-phenyl-[1,2,4]triazolo[1,5-a]pyridin-2-amine] was run?
The pIC50 was 6.00 to 6.30.

`Cc1nnc2cc(Nc3nc4cccc(NC5CCOCC5)n4n3)ccn12` [Example 534, N^2-(3-methyl-[1,2,4]triazolo[4,3-a]pyridin-7-yl)-N^5-(tetrahydro-2H-pyran-4-yl)-[1,2,4]triazolo[1,5-a]pyridine-2,5-diamine] was tested. Which pIC50 did it give?
Its pIC50 is 5.00 to 6.00.

same assay, conditions: activity levels A-D, read-out: Activity Level (IC50 in the Syk HTRF assay)

`O[C@H]1CC[C@@H](Nc2cccc3nc(Nc4cnc5[nH]ccc5c4)nn23)CC1` [Example 297, cis-4-(2-(1H-pyrrolo[2,3-b]pyridin-5-ylamino)-[1,2,4]triazolo[1,5-a]pyridin-5-ylamino)cyclohexanol] was tested. Which pIC50 did it give?
Its pIC50 is 6.60 to 11.30.

`OCCOc1cc(Nc2nc3cccc(N[C@H]4CC[C@@H](O)CC4)n3n2)ccn1` [Example 277, cis-4-(2-(2-(2-hydroxyethoxy)pyridin-4-ylamino)-[1,2,4]triazolo[1,5-a]pyridin-5-ylamino)cyclohexanol] was tested. Which pIC50 did it give?
The pIC50 was 6.60 to 11.30.

`O=C1c2cc(Nc3nc4cccc(N[C@H]5CC[C@@H](O)CC5)n4n3)ccc2CN1CCO` [Example 206, cis-6-(5-(4-hydroxycyclohexylamino)-[1,2,4]triazolo[1,5-a]pyridin-2-ylamino)-2-(2-hydroxyethyl)isoindolin-1-one] was tested. Which pIC50 did it give?
The pIC50 was 5.00 to 6.00.

`Oc1cccc(Nc2nc3cccc(N[C@H]4CC[C@@H](O)CC4)n3n2)n1` [Example 305, cis-6-(5-(4-hydroxycyclohexylamino)-[1,2,4]triazolo[1,5-a]pyridin-2-ylamino)pyridin-2-ol] was tested. Which pIC50 did it give?
The pIC50 was 5.00 to 6.00.

With `CNC(=O)c1ccc(Nc2nc3cccc(N[C@H]4CC[C@@H](O)CC4)n3n2)cc1` [Example 386, cis-4-(5-(4-hydroxycyclohexylamino)-[1,2,4]triazolo[1,5-a]pyridin-2-ylamino)-N-methylbenzamide] as the compound, how does the pIC50 read?
Its pIC50 is 6.00 to 6.30.

How did the pIC50 turn out when `OCC1CN(c2cccc3nc(Nc4ccc(C(F)(F)F)cc4)nn23)C1` [Example 259, (1-(2-(4-(trifluoromethyl)phenylamino)-[1,2,4]triazolo[1,5-a]pyridin-5-yl)azetidin-3-yl)methanol] was run?
The pIC50 was 6.60 to 11.30.

With `CNC(=O)c1ccc(Nc2nc3cccc(-c4ccc5nc(C)[nH]c5c4)n3n2)cc1` [Example 244, N-methyl-4-(5-(2-methyl-1H-benzo[d]imidazol-6-yl)-[1,2,4]triazolo[1,5-a]pyridin-2-ylamino)benzamide] as the compound, how does the pIC50 read?
Its pIC50 is 6.60 to 11.30.

How did the pIC50 turn out when `N#Cc1ccc(Nc2nc3cccc(N[C@H]4CC[C@@H](O)CC4)n3n2)cn1` [Example 381] was run?
The pIC50 was 5.00 to 6.00.

same assay, conditions: read-out: Activity Level (Syk HTRF assay IC50)

How did the pIC50 turn out when `c1ccc(Nc2nc3cccc(-c4cccc(-c5ncn[nH]5)c4)n3n2)cc1` [compound 62, 5-(3-(1H-1,2,4-triazol-5-yl)phenyl)-N-phenyl-[1,2,4]triazolo[1,5-a]pyridin-2-amine] was run?
Its pIC50 is 6.30 to 6.60.

`CC1(C)C(=O)Nc2cc(Nc3nc4cccc(N[C@@H]5CCCNC5)n4n3)ccc21` [compound 131, (R)-3,3-dimethyl-6-(5-(piperidin-3-ylamino)-[1,2,4]triazolo[1,5-a]pyridin-2-ylamino)indolin-2-one] was tested. Which pIC50 did it give?
The pIC50 was 6.60 to 11.30.
